Experimental data: ChEMBL document CHEMBL3991601, “The target landscape of clinical kinase drugs” (Science, 2017)
Activity calls are given as the source filed them. Rule as the data show it, for most assays here: actives have a measured Kd and inactives only a lower limit.

Tests used:
[1] = biological target: T1, Phosphorylase b kinase gamma catalytic chain, liver/testis isoform (Homo sapiens, UniProt P15735)
T1 sequence (P15735 whole entry): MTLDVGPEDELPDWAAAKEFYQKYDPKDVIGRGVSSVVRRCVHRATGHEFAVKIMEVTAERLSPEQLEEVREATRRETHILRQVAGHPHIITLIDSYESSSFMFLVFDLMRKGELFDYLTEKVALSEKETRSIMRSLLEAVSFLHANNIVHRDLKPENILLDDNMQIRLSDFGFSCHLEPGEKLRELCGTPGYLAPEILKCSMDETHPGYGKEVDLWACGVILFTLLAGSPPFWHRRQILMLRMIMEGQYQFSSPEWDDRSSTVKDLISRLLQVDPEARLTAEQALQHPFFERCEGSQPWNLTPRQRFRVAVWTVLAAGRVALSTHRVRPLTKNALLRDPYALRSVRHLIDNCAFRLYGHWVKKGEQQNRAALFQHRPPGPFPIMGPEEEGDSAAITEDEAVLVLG

[2] = biological target: Serine/threonine-protein kinase MRCK beta (Homo sapiens, UniProt Q9Y5S2)
Sequence of Serine/threonine-protein kinase MRCK beta (Q9Y5S2 whole entry): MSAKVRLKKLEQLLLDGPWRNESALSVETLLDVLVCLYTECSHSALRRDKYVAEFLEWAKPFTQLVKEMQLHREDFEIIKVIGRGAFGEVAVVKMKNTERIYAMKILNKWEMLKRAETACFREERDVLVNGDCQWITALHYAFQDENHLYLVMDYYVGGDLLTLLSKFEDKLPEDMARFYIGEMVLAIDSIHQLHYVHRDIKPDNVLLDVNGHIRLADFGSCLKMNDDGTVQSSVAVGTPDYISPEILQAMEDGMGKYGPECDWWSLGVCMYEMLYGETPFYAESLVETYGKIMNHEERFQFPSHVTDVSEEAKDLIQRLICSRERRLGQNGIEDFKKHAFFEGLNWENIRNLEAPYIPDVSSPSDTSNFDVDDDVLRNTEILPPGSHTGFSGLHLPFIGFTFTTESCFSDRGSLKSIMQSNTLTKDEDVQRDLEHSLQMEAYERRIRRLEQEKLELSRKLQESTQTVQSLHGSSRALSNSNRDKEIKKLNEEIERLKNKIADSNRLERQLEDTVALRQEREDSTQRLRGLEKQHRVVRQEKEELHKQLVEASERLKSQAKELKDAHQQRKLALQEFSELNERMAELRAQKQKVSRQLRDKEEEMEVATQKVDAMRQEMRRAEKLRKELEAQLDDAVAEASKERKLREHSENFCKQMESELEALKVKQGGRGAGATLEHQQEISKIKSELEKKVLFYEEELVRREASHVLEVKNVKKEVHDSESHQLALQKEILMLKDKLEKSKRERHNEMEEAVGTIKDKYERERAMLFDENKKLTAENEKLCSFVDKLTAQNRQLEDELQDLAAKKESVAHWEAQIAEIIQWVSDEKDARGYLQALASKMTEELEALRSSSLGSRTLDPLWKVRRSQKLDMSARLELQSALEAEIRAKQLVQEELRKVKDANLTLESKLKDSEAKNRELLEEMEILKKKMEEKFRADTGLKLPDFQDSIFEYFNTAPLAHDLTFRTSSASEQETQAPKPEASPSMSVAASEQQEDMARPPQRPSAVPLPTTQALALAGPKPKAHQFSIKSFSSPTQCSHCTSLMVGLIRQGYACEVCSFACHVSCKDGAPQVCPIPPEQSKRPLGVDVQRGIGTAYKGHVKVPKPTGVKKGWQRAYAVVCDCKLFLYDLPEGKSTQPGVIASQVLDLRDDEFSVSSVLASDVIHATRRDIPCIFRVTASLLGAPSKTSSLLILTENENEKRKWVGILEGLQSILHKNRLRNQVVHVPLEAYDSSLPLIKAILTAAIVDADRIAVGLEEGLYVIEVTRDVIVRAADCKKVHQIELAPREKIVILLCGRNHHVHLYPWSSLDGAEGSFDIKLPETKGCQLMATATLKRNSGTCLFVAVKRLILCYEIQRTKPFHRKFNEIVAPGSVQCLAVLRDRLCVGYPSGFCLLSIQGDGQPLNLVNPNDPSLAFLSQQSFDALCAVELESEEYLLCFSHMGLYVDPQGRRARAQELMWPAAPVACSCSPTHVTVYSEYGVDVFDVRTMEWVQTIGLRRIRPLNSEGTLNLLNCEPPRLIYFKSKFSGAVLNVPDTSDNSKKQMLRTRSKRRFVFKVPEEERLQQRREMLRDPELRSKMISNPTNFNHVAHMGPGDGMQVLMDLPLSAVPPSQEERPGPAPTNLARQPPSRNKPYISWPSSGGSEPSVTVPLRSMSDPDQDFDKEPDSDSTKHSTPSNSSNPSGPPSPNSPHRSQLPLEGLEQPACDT

[3] = biological target: Cyclin-dependent kinase 7 (Homo sapiens, UniProt P50613)
Sequence of Cyclin-dependent kinase 7 (P50613 whole entry): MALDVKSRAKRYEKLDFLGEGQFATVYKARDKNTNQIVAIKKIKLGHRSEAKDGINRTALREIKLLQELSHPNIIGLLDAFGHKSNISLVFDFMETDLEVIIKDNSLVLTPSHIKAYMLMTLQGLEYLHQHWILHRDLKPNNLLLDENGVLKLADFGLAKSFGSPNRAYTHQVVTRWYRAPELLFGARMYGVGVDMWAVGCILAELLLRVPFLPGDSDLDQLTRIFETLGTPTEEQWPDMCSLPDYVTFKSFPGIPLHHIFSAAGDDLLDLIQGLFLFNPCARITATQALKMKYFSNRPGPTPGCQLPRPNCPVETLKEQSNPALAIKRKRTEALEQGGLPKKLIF

[4] = biological target: Interleukin-1 receptor-associated kinase 1 (Homo sapiens, UniProt P51617)
Sequence of Interleukin-1 receptor-associated kinase 1 (P51617 whole entry): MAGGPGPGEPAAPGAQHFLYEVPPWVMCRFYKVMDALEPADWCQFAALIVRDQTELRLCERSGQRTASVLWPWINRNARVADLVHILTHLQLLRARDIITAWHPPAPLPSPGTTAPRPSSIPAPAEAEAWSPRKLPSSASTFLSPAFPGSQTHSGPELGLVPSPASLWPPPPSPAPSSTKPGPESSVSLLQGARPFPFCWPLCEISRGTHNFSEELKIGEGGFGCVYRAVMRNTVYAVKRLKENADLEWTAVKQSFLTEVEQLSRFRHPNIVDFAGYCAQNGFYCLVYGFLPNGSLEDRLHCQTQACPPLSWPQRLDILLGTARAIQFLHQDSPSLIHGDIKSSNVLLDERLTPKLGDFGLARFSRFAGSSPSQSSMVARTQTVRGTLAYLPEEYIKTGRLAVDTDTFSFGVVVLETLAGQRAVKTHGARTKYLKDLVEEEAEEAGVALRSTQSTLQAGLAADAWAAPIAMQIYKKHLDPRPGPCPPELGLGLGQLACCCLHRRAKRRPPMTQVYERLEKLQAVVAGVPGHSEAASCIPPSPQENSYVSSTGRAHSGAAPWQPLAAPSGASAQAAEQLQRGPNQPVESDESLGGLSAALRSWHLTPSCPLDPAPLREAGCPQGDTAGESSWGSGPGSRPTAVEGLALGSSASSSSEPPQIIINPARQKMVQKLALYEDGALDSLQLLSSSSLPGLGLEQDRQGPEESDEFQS

[5] = biological target: Ephrin type-A receptor 5 (Homo sapiens, UniProt P54756)
Sequence of Ephrin type-A receptor 5 (P54756 whole entry): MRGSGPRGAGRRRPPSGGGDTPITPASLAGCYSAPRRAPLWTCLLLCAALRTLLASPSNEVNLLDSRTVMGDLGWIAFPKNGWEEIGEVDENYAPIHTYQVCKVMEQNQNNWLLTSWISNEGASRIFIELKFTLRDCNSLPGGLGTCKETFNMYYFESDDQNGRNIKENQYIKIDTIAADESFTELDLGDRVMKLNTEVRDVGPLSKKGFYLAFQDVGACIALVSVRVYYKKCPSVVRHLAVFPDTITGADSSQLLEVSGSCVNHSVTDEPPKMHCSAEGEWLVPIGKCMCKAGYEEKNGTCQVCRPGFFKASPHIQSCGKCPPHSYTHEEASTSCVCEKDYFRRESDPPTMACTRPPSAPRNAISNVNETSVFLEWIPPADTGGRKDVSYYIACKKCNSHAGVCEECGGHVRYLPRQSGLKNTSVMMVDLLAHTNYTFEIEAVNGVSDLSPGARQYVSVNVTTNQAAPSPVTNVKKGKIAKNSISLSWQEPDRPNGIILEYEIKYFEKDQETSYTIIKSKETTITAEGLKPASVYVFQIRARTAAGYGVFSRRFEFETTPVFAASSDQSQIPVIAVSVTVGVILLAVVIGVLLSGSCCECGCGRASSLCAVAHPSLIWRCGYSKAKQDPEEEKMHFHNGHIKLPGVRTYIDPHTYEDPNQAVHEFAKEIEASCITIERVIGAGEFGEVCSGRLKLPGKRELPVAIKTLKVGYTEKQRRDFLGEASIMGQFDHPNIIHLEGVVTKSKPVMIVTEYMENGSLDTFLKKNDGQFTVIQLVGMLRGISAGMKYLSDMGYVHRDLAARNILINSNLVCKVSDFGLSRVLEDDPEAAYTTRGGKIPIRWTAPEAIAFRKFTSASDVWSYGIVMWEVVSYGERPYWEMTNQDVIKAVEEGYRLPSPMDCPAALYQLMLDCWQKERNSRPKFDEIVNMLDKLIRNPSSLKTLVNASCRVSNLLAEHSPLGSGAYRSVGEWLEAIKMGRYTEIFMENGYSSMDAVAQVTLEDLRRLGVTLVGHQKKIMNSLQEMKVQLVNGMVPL

[6] = biological target: Dual specificity tyrosine-phosphorylation-regulated kinase 1A (Homo sapiens, UniProt Q13627)
[7] = biological target: Ribosomal protein S6 kinase alpha-5 (Homo sapiens, UniProt O75582)
Sequence of Ribosomal protein S6 kinase alpha-5 (O75582 whole entry): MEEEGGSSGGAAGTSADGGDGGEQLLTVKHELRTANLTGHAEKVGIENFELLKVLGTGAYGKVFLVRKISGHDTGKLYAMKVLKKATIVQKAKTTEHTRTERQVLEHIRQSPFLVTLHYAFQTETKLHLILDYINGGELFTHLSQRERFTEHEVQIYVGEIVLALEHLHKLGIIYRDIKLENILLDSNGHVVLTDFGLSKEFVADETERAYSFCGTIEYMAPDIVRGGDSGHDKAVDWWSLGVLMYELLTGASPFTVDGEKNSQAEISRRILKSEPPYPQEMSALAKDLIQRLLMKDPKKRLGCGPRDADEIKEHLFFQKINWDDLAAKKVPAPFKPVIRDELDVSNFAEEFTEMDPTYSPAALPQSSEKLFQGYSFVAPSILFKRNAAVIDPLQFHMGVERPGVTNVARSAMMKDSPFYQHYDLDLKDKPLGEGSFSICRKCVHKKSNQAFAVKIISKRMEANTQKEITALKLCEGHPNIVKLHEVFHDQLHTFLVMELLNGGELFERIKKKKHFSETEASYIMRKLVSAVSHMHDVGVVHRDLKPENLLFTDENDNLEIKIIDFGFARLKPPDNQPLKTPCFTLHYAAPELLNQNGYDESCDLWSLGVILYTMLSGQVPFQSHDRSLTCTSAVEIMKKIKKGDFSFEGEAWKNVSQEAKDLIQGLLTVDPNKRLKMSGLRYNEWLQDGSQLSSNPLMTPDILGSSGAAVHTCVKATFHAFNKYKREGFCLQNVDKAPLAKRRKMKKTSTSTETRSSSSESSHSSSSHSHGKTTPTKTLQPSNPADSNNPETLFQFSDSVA

[8] = biological target: T2, Bifunctional phosphoribosylaminoimidazole carboxylase/phosphoribosylaminoimidazole succinocarboxamide synthetase (Homo sapiens, UniProt P22234)
T2 sequence (P22234 whole entry): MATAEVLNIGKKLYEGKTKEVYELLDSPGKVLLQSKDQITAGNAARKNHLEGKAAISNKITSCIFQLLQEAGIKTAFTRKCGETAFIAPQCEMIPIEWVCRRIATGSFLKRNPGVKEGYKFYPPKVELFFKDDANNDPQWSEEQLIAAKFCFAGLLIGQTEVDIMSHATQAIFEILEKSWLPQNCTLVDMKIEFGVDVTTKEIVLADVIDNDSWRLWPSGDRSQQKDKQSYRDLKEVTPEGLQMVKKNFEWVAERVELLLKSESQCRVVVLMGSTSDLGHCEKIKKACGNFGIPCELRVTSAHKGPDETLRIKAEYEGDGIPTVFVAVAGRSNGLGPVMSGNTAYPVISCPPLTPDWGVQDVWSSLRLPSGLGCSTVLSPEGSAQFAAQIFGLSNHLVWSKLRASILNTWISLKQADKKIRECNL

[9] = biological target: Mitogen-activated protein kinase 14 (Homo sapiens, UniProt Q16539)
Sequence of Mitogen-activated protein kinase 14 (Q16539 whole entry): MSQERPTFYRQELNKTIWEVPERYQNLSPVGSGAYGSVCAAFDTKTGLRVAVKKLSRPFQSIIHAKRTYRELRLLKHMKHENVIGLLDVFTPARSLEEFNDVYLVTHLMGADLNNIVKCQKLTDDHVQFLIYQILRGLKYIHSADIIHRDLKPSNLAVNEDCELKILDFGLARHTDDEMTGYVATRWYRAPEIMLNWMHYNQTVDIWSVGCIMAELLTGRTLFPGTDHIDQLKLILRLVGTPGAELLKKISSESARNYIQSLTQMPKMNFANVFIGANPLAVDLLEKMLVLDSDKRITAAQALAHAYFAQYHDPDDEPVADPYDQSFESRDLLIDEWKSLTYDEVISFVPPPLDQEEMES

[10] = biological target: T3, Structural maintenance of chromosomes protein 1A (Homo sapiens, UniProt Q14683)
T3 sequence (Q14683 whole entry): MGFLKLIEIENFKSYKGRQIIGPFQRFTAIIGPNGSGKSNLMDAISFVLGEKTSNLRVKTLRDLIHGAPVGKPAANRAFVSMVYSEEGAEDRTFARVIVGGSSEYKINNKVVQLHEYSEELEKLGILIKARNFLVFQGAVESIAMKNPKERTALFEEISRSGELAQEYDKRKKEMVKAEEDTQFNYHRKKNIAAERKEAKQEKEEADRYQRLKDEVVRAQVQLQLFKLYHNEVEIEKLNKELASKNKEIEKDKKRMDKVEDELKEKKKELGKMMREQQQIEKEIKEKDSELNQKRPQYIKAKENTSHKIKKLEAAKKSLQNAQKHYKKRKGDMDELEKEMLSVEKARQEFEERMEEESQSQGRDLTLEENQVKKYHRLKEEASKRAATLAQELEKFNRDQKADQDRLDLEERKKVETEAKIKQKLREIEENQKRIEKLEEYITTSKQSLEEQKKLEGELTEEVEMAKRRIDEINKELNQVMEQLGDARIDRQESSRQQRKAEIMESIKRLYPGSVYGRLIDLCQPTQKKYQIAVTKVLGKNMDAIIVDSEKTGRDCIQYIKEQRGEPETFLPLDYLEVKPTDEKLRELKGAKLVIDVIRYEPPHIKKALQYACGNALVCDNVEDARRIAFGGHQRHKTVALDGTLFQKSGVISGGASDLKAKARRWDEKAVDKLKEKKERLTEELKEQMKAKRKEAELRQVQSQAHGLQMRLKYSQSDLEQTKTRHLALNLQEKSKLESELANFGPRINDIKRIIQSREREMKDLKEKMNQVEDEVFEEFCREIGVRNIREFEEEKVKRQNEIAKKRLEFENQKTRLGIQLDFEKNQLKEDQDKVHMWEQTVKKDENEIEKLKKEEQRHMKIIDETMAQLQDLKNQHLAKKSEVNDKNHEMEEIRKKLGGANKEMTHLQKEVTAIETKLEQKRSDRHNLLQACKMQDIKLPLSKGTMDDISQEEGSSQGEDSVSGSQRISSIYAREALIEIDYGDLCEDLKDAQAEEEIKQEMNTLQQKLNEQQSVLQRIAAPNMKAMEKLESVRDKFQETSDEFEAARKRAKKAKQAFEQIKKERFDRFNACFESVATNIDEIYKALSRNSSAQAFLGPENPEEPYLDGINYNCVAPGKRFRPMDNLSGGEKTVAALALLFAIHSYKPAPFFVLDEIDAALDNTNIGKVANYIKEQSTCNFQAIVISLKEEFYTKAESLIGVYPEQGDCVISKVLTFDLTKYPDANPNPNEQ

[11] = biological target: T4, Serine/threonine-protein kinase ULK3 (Homo sapiens, UniProt Q6PHR2)
T4 sequence (Q6PHR2 whole entry): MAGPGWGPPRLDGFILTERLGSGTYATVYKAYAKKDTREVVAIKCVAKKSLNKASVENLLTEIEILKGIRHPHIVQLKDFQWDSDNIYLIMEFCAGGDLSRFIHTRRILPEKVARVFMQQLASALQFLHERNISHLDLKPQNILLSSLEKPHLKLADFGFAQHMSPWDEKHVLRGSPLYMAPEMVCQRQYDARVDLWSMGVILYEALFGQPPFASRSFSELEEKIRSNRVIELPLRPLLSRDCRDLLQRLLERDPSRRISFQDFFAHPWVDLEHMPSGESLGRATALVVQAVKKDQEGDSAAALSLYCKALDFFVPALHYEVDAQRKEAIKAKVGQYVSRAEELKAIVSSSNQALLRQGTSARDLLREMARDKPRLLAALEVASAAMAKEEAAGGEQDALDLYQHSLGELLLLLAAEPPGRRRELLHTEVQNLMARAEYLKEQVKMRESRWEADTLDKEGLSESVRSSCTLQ
Also: in the data inactive means no Kd found up to 30 µM.

Kd [1]	Kd [2]	Kd [3]	Kd [4]	Kd [5]	Kd [6]	Kd [7]	Kd [8]	Kd [9]	Kd [10]	Kd [11]	Structure (SMILES)
> 30 µM (inactive)	> 30 µM (inactive)	> 30 µM (inactive)	> 30 µM (inactive)	> 30 µM (inactive)	> 30 µM (inactive)	> 30 µM (inactive)	> 30 µM (inactive)	> 30 µM (inactive)	> 30 µM (inactive)	> 30 µM (inactive)	CNC(=O)c1cccc2cc(Oc3ccnc4cc(OCC5(N)CC5)c(OC)cc34)ccc12 [LUCITANIB]
> 30 µM (inactive)	> 30 µM (inactive)	> 30 µM (inactive)	> 30 µM (inactive)	> 30 µM (inactive)	> 30 µM (inactive)	> 30 µM (inactive)	> 30 µM (inactive)	> 30 µM (inactive)	> 30 µM (inactive)	> 30 µM (inactive)	NC1(c2ccc(-c3nc4ccn5c(=O)[nH]nc5c4cc3-c3ccccc3)cc2)CCC1 [MK-2206]
> 30 µM (inactive)	> 30 µM (inactive)	> 30 µM (inactive)	> 30 µM (inactive)	> 30 µM (inactive)	> 30 µM (inactive)	> 30 µM (inactive)	> 30 µM (inactive)	> 30 µM (inactive)	> 30 µM (inactive)	> 30 µM (inactive)	CN(C[C@@H]1COCCO1)S(=O)(=O)Nc1ccc2ccc3ncc(-c4cnn(C)c4)cc3c(=O)c2c1 [MK-2461]
> 30 µM (inactive)	> 30 µM (inactive)	> 30 µM (inactive)	> 30 µM (inactive)	> 30 µM (inactive)	> 30 µM (inactive)	> 30 µM (inactive)	> 30 µM (inactive)	> 30 µM (inactive)	> 30 µM (inactive)	> 30 µM (inactive)	Cn1cc(-c2cnc3ccc4ccc(CS(=O)(=O)NCc5ccccn5)cc4c(=O)c3c2)cn1 [MK-8033]
> 30 µM (inactive)	> 30 µM (inactive)	> 30 µM (inactive)	> 30 µM (inactive)	> 30 µM (inactive)	> 30 µM (inactive)	> 30 µM (inactive)	> 30 µM (inactive)	> 30 µM (inactive)	> 30 µM (inactive)	> 30 µM (inactive)	FC(F)(F)c1ccc(/C=C/c2nc(COc3ccc(CCCCn4ccnn4)cc3)co2)cc1 [MUBRITINIB]
> 30 µM (inactive)	> 30 µM (inactive)	> 30 µM (inactive)	> 30 µM (inactive)	> 30 µM (inactive)	> 30 µM (inactive)	> 30 µM (inactive)	> 30 µM (inactive)	> 30 µM (inactive)	> 30 µM (inactive)	> 30 µM (inactive)	COc1ncc(-c2ccc3nccc(-c4ccnnc4)c3c2)cc1NS(=O)(=O)c1ccc(F)cc1F [OMIPALISIB]
0.053 µM (active)	> 30 µM (inactive)	0.003 µM (active)	> 30 µM (inactive)	> 30 µM (inactive)	> 30 µM (inactive)	30 µM (active)	> 30 µM (inactive)	> 30 µM (inactive)	> 30 µM (inactive)	0.626 µM (active)	Cc1nc(Nc2n[nH]c3c2CN(C(=O)N[C@H](CN(C)C)c2ccccc2)C3(C)C)c2sccc2n1 [PF-03758309]
> 30 µM (inactive)	> 30 µM (inactive)	> 30 µM (inactive)	> 30 µM (inactive)	> 30 µM (inactive)	> 30 µM (inactive)	> 30 µM (inactive)	> 30 µM (inactive)	> 30 µM (inactive)	> 30 µM (inactive)	> 30 µM (inactive)	Cc1cnc(NC(=O)Nc2cc(Br)c(C)cc2OC[C@@H]2CNCCO2)cn1 [RABUSERTIB]
> 30 µM (inactive)	> 30 µM (inactive)	> 30 µM (inactive)	> 30 µM (inactive)	> 30 µM (inactive)	> 30 µM (inactive)	> 30 µM (inactive)	> 30 µM (inactive)	> 30 µM (inactive)	> 30 µM (inactive)	> 30 µM (inactive)	CO[C@H]1C[C@@H]2CC[C@@H](C)[C@@](O)(O2)C(=O)C(=O)N2CCCC[C@H]2C(=O)O[C@H]([C@H](C)C[C@@H]2CC[C@@H](OP(C)(C)=O)[C@H](OC)C2)CC(=O)[C@H](C)/C=C(\C)[C@@H](O)[C@@H](OC)C(=O)[C@H](C)C[C@H](C)/C=C/C=C/C=C/1C [RIDAFOROLIMUS]
> 30 µM (inactive)	> 30 µM (inactive)	> 30 µM (inactive)	> 30 µM (inactive)	> 30 µM (inactive)	> 30 µM (inactive)	> 30 µM (inactive)	> 30 µM (inactive)	> 30 µM (inactive)	> 30 µM (inactive)	> 30 µM (inactive)	N#CC1(c2ccc(NC(=O)c3cccnc3NCc3ccncc3)cc2)CCCC1 [RIVOCERANIB]

Structure (SMILES)	Kd [1]	Kd [2]	Kd [3]	Kd [4]	Kd [5]	Kd [6]	Kd [7]	Kd [8]	Kd [9]	Kd [10]	Kd [11]
O=C(Nc1cc(C(F)(F)F)cc(C(F)(F)F)c1)c1cc(Cl)ccc1O [IMD-0354]	> 30 µM (inactive)	> 30 µM (inactive)	> 30 µM (inactive)	> 30 µM (inactive)	> 30 µM (inactive)	> 30 µM (inactive)	> 30 µM (inactive)	> 30 µM (inactive)	> 30 µM (inactive)	> 30 µM (inactive)	> 30 µM (inactive)
CCOc1cc2ncc(C#N)c(Nc3ccc(F)c(Cl)c3)c2cc1NC(=O)/C=C/CN(C)C [PELITINIB]	> 30 µM (inactive)	> 30 µM (inactive)	> 30 µM (inactive)	> 30 µM (inactive)	> 30 µM (inactive)	> 30 µM (inactive)	> 30 µM (inactive)	> 30 µM (inactive)	> 30 µM (inactive)	> 30 µM (inactive)	> 30 µM (inactive)
